The supplement of paper PMC5908809

What was measured:
[1] = test system: normal NK cells expanded with K562-aAPC; test: drug sensitivity score (DSS) (DSS units); higher = more sensitive; extreme values may be limits of the assay; details: 72 h; IL-2 2.5 ng/mL
Experimental: (§1)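 Drug sensitivity and resistance testing on K562-aAPC-expanded normal NK cells: 5 concentrations (10-fold steps over a 10,000-fold range), 72 h at 37 °C, viability by CellTiter-Glo normalised to DMSO and benzethonium chloride controls; DSS from the fitted curve.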

[2] = test system: normal NK cells expanded with K562-aAPC; test: percent inhibition of viability; higher = more inhibition; details: 72 h, IL-2 2.5 ng/mL
Experimental: as §1

DERL-7 (IL-2 2.5 ng/mL) [3] = test: as above; details: 72 h
NKL (IL-2 2.5 ng/mL) [4] = test: as above; details: 72 h
[5] = test system: normal primary NK cells, pool 2 (3 donors) (IL-2 2.5 ng/mL); test: as above; details: 72 h
SNK-6 (IL-2 2.5 ng/mL) [6] = test: as above; details: 72 h
KAI3 (IL-2 2.5 ng/mL) [7] = test: as above; details: 72 h
[8] = test system: normal primary NK cells, pool 3 (3 donors) (IL-2 2.5 ng/mL); test: as above; details: 72 h
YT (IL-2 2.5 ng/mL) [9] = test: as above; details: 72 h
IMC-1 (IL-2 20 ng/mL) [10] = test: as above; details: 72 h
NK-92 (IL-2 2.5 ng/mL) [11] = test: as above; details: 72 h
[12] = test system: normal primary NK cells, pool 1 (3 donors) (IL-2 2.5 ng/mL); test: as above; details: 72 h
KHYG-1 (IL-2 2.5 ng/mL) [13] = test: as above; details: 72 h
[14] = test system: normal primary NK cells, pool 1 (3 donors), resting (IL-2 0 ng/mL); test: as above; details: 72 h
NK-YS (IL-2 2.5 ng/mL) [15] = test: as above; details: 72 h
DERL-7 (IL-2 2.5 ng/mL) [16] = test: drug sensitivity score (DSS) (DSS units); higher = more sensitive; extreme values may be limits of the assay; details: 72 h
NKL (IL-2 2.5 ng/mL) [17] = test: as above; details: 72 h
[18] = test system: normal primary NK cells, pool 2 (3 donors) (IL-2 2.5 ng/mL); test: as above; details: 72 h
SNK-6 (IL-2 2.5 ng/mL) [19] = test: as above; details: 72 h
KAI3 (IL-2 2.5 ng/mL) [20] = test: as above; details: 72 h
[21] = test system: normal primary NK cells, pool 3 (3 donors) (IL-2 2.5 ng/mL); test: as above; details: 72 h
YT (IL-2 2.5 ng/mL) [22] = test: as above; details: 72 h
IMC-1 (IL-2 20 ng/mL) [23] = test: as above; details: 72 h
NK-92 (IL-2 2.5 ng/mL) [24] = test: as above; details: 72 h
[25] = test system: normal primary NK cells, pool 1 (3 donors) (IL-2 2.5 ng/mL); test: as above; details: 72 h
KHYG-1 (IL-2 2.5 ng/mL) [26] = test: as above; details: 72 h
[27] = test system: normal primary NK cells, pool 1 (3 donors), resting (IL-2 0 ng/mL); test: as above; details: 72 h
NK-YS (IL-2 2.5 ng/mL) [28] = test: as above; details: 72 h

O=C(NOCCO)c1ccc2cncn2c1Nc1ccc(I)cc1F [GDC-0623] (max concentration tested 2500 nM)
Details | drug sensitivity score
DERL-7 (IL-2 2.5 ng/mL) [16] | 4.82
IMC-1 (IL-2 20 ng/mL) [23] | 0.89
KAI3 (IL-2 2.5 ng/mL) [20] | 2.53
KHYG-1 (IL-2 2.5 ng/mL) [26] | 13
NK-92 (IL-2 2.5 ng/mL) [24] | 0.89
NK-YS (IL-2 2.5 ng/mL) [28] | 0.81
NKL (IL-2 2.5 ng/mL) [17] | 16.7
SNK-6 (IL-2 2.5 ng/mL) [19] | 0
YT (IL-2 2.5 ng/mL) [22] | 0
[1] | 0
[18] | 0.54
[21] | 0
[25] | 0.57
[27] | 0.97

percent inhibition of viability [%]
Details | 0.25 nM | 2.5 nM | 25 nM | 250 nM | 2500 nM
DERL-7 (IL-2 2.5 ng/mL) [3] | 1.53 | 2.87 | 4.11 | 20.2 | 49.3
IMC-1 (IL-2 20 ng/mL) [10] | -4.83 | -0.98 | -7.63 | -7.39 | -5.55
KAI3 (IL-2 2.5 ng/mL) [7] | -1.35 | 0.84 | 4.63 | 16.2 | 24.8
KHYG-1 (IL-2 2.5 ng/mL) [13] | -2.63 | 1.52 | 26.2 | 53.6 | 53.1
NK-92 (IL-2 2.5 ng/mL) [11] | -2.15 | -3.76 | -6.69 | -7.14 | -20.9
NK-YS (IL-2 2.5 ng/mL) [15] | -3.81 | -3.05 | 2.89 | 12.4 | 10.4
NKL (IL-2 2.5 ng/mL) [4] | -5.9 | -3.61 | 37.9 | 65.4 | 62.6
SNK-6 (IL-2 2.5 ng/mL) [6] | 6.88 | -4.38 | -13.8 | -14.5 | -33.3
YT (IL-2 2.5 ng/mL) [9] | 0.15 | -1.83 | -0.28 | 6.96 | -0.89
[2] | -1.46 | -4.58 | 0.15 | 3.69 | -1.38
[5] | 0.23 | -3.52 | 5.29 | 8.89 | 14.6
[8] | -5.35 | -2.96 | -2.99 | 19.2 | 1.26
[12] | -9.21 | -4.95 | 0.24 | 3.46 | 15.2
[14] | -7.6 | 7.27 | 7.92 | 9.81 | 15.9

CC[C@H](CC#N)OC(=O)N[C@@H](C)c1cccc(NC(=O)Nc2ccc(-c3cnco3)c(OC)c2)c1 [AVN944] (max concentration tested 10000 nM)
Details | drug sensitivity score
DERL-7 (IL-2 2.5 ng/mL) [16] | 22.3
IMC-1 (IL-2 20 ng/mL) [23] | 13.5
KAI3 (IL-2 2.5 ng/mL) [20] | 23.1
KHYG-1 (IL-2 2.5 ng/mL) [26] | 23.1
NK-92 (IL-2 2.5 ng/mL) [24] | 21.5
NK-YS (IL-2 2.5 ng/mL) [28] | 22.9
NKL (IL-2 2.5 ng/mL) [17] | 19.2
SNK-6 (IL-2 2.5 ng/mL) [19] | 24.3
YT (IL-2 2.5 ng/mL) [22] | 18.9
[1] | 9.68
[18] | 0.8
[21] | 1.47
[25] | 2.1
[27] | 4.7

percent inhibition of viability [%]
Details | 1 nM | 10 nM | 100 nM | 1000 nM | 10000 nM
DERL-7 (IL-2 2.5 ng/mL) [3] | 1.82 | -0.51 | 46.2 | 89.3 | 94.2
IMC-1 (IL-2 20 ng/mL) [10] | -3.38 | 0.07 | -49.7 | 74.7 | 93.8
KAI3 (IL-2 2.5 ng/mL) [7] | 3.06 | 5.82 | 42.7 | 101 | 97.7
KHYG-1 (IL-2 2.5 ng/mL) [13] | -0.31 | 1.95 | 46.9 | 96.4 | 96.2
NK-92 (IL-2 2.5 ng/mL) [11] | -6.77 | -7.92 | 21.9 | 101 | 94.4
NK-YS (IL-2 2.5 ng/mL) [15] | 1.24 | -1.29 | 45.5 | 94.6 | 94
NKL (IL-2 2.5 ng/mL) [4] | -10.6 | -12.7 | 32.8 | 81.2 | 72.3
SNK-6 (IL-2 2.5 ng/mL) [6] | 6.47 | 13.1 | 56.5 | 91 | 96.5
YT (IL-2 2.5 ng/mL) [9] | 1.64 | 0.89 | 25.8 | 83.2 | 83.1
[2] | -4.47 | -3.33 | 15.6 | 41.6 | 39.1
[5] | -12.8 | -4.58 | 1.01 | 5.56 | 16.6
[8] | -8.77 | -6.21 | 4.2 | 12.5 | 18.4
[12] | -6.01 | -11.6 | 1.98 | 6.68 | 27.3
[14] | -10.3 | -2.43 | 27.4 | 7.53 | 62.7
